From patent publication US12319655B2, “RAF kinase inhibitors and methods of use thereof” (Deciphera Pharmaceuticals, LLC, priority 2021, dated 2025) come the findings set out here.

For assay [1], the target named is A-Raf kinase (SEQ. ID No: 1) (Homo sapiens (Human), UniProt P10398, Y301D/Y302D). Nature of the assay: Biochemical Assay for A-Raf (1). Conditions: Table J, assay version (1); read-out: ARAF (1) IC50. Summed up:
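IC50 values were derived by four-parameter sigmoidal fitting of percent inhibition, calculated from reaction rates over the 4–5 h window. Absorbance at 340 nm was tracked for 6 h at 30 °C via coupled PK/LDH NADH depletion. Conditions: 1 mM ATP, 30.1 nM MEK substrate, 5.55 nM A-Raf (Y301D/Y302D), Tris pH 7.5, 1% DMSO.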

Assay [2] has as its target B-Raf (V600E) (SEQ. ID NO: 4) kinase (Homo sapiens (Human), UniProt P15056, V600E). The assay is described as follows: Biochemical Assay for B-Raf (V600E) (1). Conditions: Table J, BRAF V600E, assay version (1); read-out: BRAF VE (1) IC50. Summed up:
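Serially diluted compounds tested against 0.03 nM enzyme with 30.1 nM MEK substrate and 1 mM ATP (Tris pH 7.5, 15 mM MgCl2), ATP use coupled to NADH loss via PK/LDH. A340 monitored continuously 6 h, 30 °C; IC50 fitted (four-parameter) from the 3–4 h rate versus no-compound and known-inhibitor controls.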

Assay [3] has as its system A375 cells. Nature of the assay: A375 Cell Proliferation Assay (1). The class given is cell-based. Conditions: Homo sapiens, A-375. The gist of the method: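 Resazurin fluorescence (excitation 540 nm, emission 600 nm, after a further 5-6 h) gave IC50s from triplicate compound dilution series.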
For assay [4], the system named is WM3928 cells. Nature of the assay: WM3928 Cell Proliferation Assay (1). In kind it is cell-based. Summed up:
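IC50 was derived from resazurin fluorescence (ex 540, em 600 nm) after a 6–7 h dye incubation. Before that, cells had 67–72 h of compound exposure at 37 °C, 5% CO2.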

Each structure is given as a SMILES string.

Chain of A-Raf kinase (SEQ. ID No: 1) (P10398 other isoform, or with tags, fused parts or gaps Y301D (already in the parent)/Y302D (already in the parent)): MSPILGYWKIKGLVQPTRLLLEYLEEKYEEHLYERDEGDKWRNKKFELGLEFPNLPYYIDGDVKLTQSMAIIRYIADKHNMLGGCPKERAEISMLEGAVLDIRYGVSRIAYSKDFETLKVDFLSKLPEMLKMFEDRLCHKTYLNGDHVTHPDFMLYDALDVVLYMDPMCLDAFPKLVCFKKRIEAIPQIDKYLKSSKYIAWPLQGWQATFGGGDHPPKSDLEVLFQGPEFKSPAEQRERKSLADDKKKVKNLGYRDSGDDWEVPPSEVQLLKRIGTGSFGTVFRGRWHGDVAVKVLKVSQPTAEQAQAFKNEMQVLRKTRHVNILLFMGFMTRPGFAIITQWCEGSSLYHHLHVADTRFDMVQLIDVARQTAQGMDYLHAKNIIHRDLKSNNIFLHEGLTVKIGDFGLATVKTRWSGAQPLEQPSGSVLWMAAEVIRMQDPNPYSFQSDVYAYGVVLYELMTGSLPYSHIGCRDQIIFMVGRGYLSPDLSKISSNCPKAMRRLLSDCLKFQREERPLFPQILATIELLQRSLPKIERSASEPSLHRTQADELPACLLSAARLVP
Chain of B-Raf (V600E) (SEQ. ID NO: 4) kinase (P15056 416-766 V600E): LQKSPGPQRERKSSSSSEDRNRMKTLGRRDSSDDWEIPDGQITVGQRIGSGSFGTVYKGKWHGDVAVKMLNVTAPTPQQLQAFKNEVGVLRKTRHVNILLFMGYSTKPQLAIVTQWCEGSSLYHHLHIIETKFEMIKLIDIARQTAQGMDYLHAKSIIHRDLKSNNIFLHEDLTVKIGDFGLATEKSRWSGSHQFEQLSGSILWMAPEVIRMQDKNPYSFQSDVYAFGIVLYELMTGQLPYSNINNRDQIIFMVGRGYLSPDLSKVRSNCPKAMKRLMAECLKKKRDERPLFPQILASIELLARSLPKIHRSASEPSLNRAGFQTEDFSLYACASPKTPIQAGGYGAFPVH

Regarding `COC(C)(C)c1cc(C(=O)Nc2ccc(C)c(-c3cc(-c4ccnc(NC(=O)C5CC5)c4)cnn3)c2)ccn1` [Example 319], the IC50 – broadly, the concentration that inhibits the measured activity by half – in assay [1] was 1000 to 10000 nM; in assay [2] it was at most 100 nM; in assay [3], at most 100 nM.

Turning to `Cc1ncc(NC(=O)c2cncc(C(F)F)c2)cc1-c1cccc(-c2cc(NC(=O)C3CC3)ncn2)c1` [Example 280], the IC50 in assay [1] is 1000 to 10000 nM; in assay [2] it was at most 100 nM; in assay [3], 100 to 500 nM; in assay [4] it was at most 100 nM.

For the compound `CC(=O)Nc1cc(-c2cncc(-c3cc(NC(=O)c4ccnc(C(F)(F)F)c4)ccc3C)n2)ccn1` [Example 29], the IC50 in assay [1] was 1000 to 10000 nM; in assay [2], at most 100 nM; in assay [3], 100 to 500 nM; in assay [4], at most 100 nM.

As to `Cc1nc(-c2ccnc(NC(=O)C3CC3)c2)cc(-c2cc(NC(=O)c3ccnc(C4CC4)c3)cnc2C)n1` [Example 287], the IC50 was 1000 to 10000 nM in assay [1], at most 100 nM in assay [2], 1000 to 10000 nM in assay [3] and 100 to 500 nM in assay [4].

As for `COC(=O)Nc1cc(-c2cc(-c3cc(NC(=O)c4ccnc(C(C)(C)F)c4)c(F)cc3C)ccn2)ccn1` [Example 302], the IC50 was 1000 to 10000 nM in assay [1], at most 100 nM in assay [2], at most 100 nM in assay [3] and at most 100 nM in assay [4].

Take `COC(=O)Nc1cc(-c2cc(-c3cc(NC(=O)c4ccnc(C(C)(C)F)c4)cnc3C)ccn2)ccn1` [Example 323]: the IC50 in assay [1] is 1000 to 10000 nM; in assay [2], at most 100 nM; in assay [3], 100 to 500 nM; in assay [4], 100 to 500 nM.

Turning to `COC(=O)Nc1cc(-c2cc(-c3cc(NC(=O)c4ccnc(C(F)(F)F)c4)cnc3C)ccn2)ccn1` [Example 312], the IC50 fell in the range of 1000 to 10000 nM in assay [1], 500 to 1000 nM in assay [2], 100 to 500 nM in assay [3] and 1000 to 10000 nM in assay [4].

For the compound `Cc1ccc(NC(=O)C2CCOC(C(C)C)C2)cc1-c1cc(-c2ccnc(NC(=O)C3CC3)c2)cnn1` (centres unmarked) [Example 370], the half-maximal inhibitory concentration (IC50) in assay [1] is 1000 to 10000 nM; in assay [2] it was at most 100 nM; in assay [3] it was 1000 to 10000 nM; in assay [4], 1000 to 10000 nM.

On to `Cc1ccc(NC(=O)c2ccnc(C3CC3)c2)cc1-c1cc(-c2ccnc(NC(=O)C3CC3)c2)cnn1` [Example 331], for which the IC50 was 1000 to 10000 nM in assay [1], at most 100 nM in assay [2], 100 to 500 nM in assay [3] and 500 to 1000 nM in assay [4].

With `CNC(=O)c1cc(-c2cnnc(-c3cc(NC(=O)CCC(C)(C)C#N)cnc3C)c2)ccn1` [Example 333], the IC50 in assay [1], in assay [2] and in assay [3] was 1000 to 10000 nM each time.

Take `COC(=O)Nc1cc(-c2cnnc(-c3cc(NC(=O)c4ccnc(C(C)(C)C#N)c4)cnc3C)c2)ccn1` [Example 306]: the results for the IC50 in assay [1], in assay [2] and in assay [3] were 1000 to 10000 nM, 100 to 500 nM and 1000 to 10000 nM, respectively.

In the case of `COC(=O)Nc1cc(-c2cnnc(-c3cc(NC(=O)c4ccnc(C(F)F)c4)cnc3C)c2)ccn1` [Example 363], the IC50 in assay [1], in assay [2] and in assay [3] was 1000 to 10000 nM each time.

For the compound `Cc1ccc(NC(=O)C2CN(C)CCO2)cc1-c1cccc(-c2cc(NC(=O)C3CC3)ncn2)c1` (centres unmarked) [Example 346], the IC50 in assay [1] is 1000 to 10000 nM; in assay [2], at most 100 nM; in assay [3], 1000 to 10000 nM.

In the case of `COC(=O)Nc1cc(-c2cnnc(-c3cc(NC(=O)c4ccnc(C(C)(C)F)c4)cnc3C)c2)ccn1` [Example 361], the IC50 in assay [1] fell in the range of 1000 to 10000 nM; in assay [2], 100 to 500 nM; in assay [3], 1000 to 10000 nM.

As to `CNC(=O)c1cc(-c2cnnc(-c3cc(NC(=O)c4ccnc(C5CC5)c4)cnc3C)c2)ccn1` [Example 317], the IC50 in assay [1], in assay [2] and in assay [3] was 1000 to 10000 nM in each case.

Regarding `CC(=O)Nc1cc(-c2cc(-c3cc(NC(=O)c4ccnc(C(F)(F)F)c4)ccc3C)cn(C)c2=O)ccn1` [Example 21, N-(3-(2′-acetamido-1-methyl-2-oxo-1,2-dihydro-[3,4′-bipyridin]-5-yl)-4-methylphenyl)-2-(trifluoromethyl)isonicotinamide], the IC50 in assay [1] was 1000 to 10000 nM; in assay [2] it was at most 100 nM; in assay [3], 1000 to 10000 nM.

`Cc1ccc(NC(=O)c2cc(C(C)(C)C)no2)cc1-c1cc(-c2ccnc(NC(=O)C3CC3)c2)cnn1` [Example 367]: the IC50 in assay [1] was 1000 to 10000 nM; in assay [2], at most 100 nM; in assay [3], 100 to 500 nM.

`CNC(=O)c1cc(-c2cc(-c3cc(C(=O)Nc4ccnc(C(F)(F)F)c4)ccc3C)ccn2)ccn1` [Example 31]: the IC50 in assay [1] was 1000 to 10000 nM; in assay [2], at most 100 nM; in assay [3], 1000 to 10000 nM.

Consider `CNC(=O)c1cc(-c2cnnc(-c3cc(NC(=O)c4ccnc(C(C)(C)F)c4)cnc3C)c2)ccn1` [Example 309], for which the IC50 was 1000 to 10000 nM in assay [1], 100 to 500 nM in assay [2] and 1000 to 10000 nM in assay [3].

For the compound `CO[C@H]1CC[C@H](C(=O)Nc2cnc(C)c(-c3cccc(-c4cc(NC(=O)C5CC5)ncn4)c3)c2)CC1` [Example 347], the figures for the IC50 in assay [1], in assay [2] and in assay [3] were 1000 to 10000 nM, at most 100 nM and 1000 to 10000 nM, respectively.

On to `COCCNC(=O)c1cc(-c2cnnc(-c3cc(NC(=O)c4cccc(C5CC5)c4)ccc3C)c2)ccn1` [Example 365], for which the values for the IC50 in assay [1], in assay [2] and in assay [3] were 1000 to 10000 nM, 500 to 1000 nM and 1000 to 10000 nM, respectively.

Turning to `Cc1ccc(NC(=O)c2ccnc(C(C)(C)C#N)c2)cc1-c1cc(-c2ccnc(C(=O)NC3CC3)c2)cnn1` [Example 372], the IC50 in assay [1] lay within 1000 to 10000 nM; in assay [2], 100 to 500 nM; in assay [3] it was 1000 to 10000 nM.

Consider `COC(=O)Nc1cc(-c2cnnc(-c3cc(NC(=O)c4cccc(C(C)(C)C#N)c4)ccc3C)c2)ccn1` [Example 311], for which the IC50 in assay [1] was 1000 to 10000 nM; in assay [2], at most 100 nM; in assay [3], at most 100 nM.

For `COC(=O)Nc1cc(-c2cnnc(-c3cc(NC(=O)CC4CCCC4)cnc3C)c2)ccn1` [Example 368], the IC50 in assay [1], in assay [2] and in assay [3] was 1000 to 10000 nM in each case.

For the compound `Cc1ncc(NC(=O)c2ccnc(C(C)(C)F)c2)cc1-c1cc(-c2ccnc(NC(=O)C3CC3)c2)cnn1` [Example 310], the 50% inhibitory concentration (IC50) in assay [1] was 1000 to 10000 nM; in assay [2], at most 100 nM; in assay [3], 100 to 500 nM.

`CNC(=O)c1cc(-c2cnnc(-c3cc(NC(=O)c4ccnc(C(F)(F)F)c4)cnc3C)c2)ccn1` [Example 318]: the IC50 in assay [1], in assay [2] and in assay [3] was 1000 to 10000 nM throughout.

Consider `Cc1ncc(NC(=O)c2cnnc(C3CC3)c2)cc1-c1nccc(-c2ccnc(NC(=O)C3CC3)c2)n1` [Example 294], for which the IC50 is 1000 to 10000 nM in assay [1], at most 100 nM in assay [2] and 1000 to 10000 nM in assay [3].

Consider `CC(=O)Nc1cc(-c2cccc(-c3cc(NC(=O)c4ccnc(C(F)(F)F)c4)ccc3C)c2)ccn1` [Example 28], for which the figures for the IC50 in assay [1], in assay [2] and in assay [3] were 500 to 1000 nM, at most 100 nM and at most 100 nM, respectively.

In the case of `CC(=O)Nc1cc(-c2cc(-c3cc(C(=O)Nc4ccnc(C(F)(F)F)c4)ccc3C)ccn2)ccn1` [Example 26], the results for the IC50 in assay [1], in assay [2] and in assay [3] were 1000 to 10000 nM, at most 100 nM and 100 to 500 nM, respectively.

In the case of `CNC(=O)c1cc(-c2cnnc(-c3cc(NC(=O)c4ccc(Cl)c(OC)c4)cnc3C)c2)ccn1` [Example 322], the IC50 in assay [1], in assay [2] and in assay [3] was 1000 to 10000 nM each time.

As for `COC(=O)Nc1cc(-c2cnnc(-c3cc(NC(=O)c4ccnc(C5CC5)c4)cnc3C)c2)ccn1` [Example 362], the IC50 in assay [1], in assay [2] and in assay [3] was 1000 to 10000 nM in each case.

With `CNC(=O)c1cc(-c2cnnc(-c3cc(NC(=O)c4ccnc(C(F)F)c4)cnc3C)c2)ccn1` [Example 330], the IC50 in assay [1], in assay [2] and in assay [3] was 1000 to 10000 nM in each case.

With `CNC(=O)c1cc(-c2cnnc(-c3cc(NC(=O)c4cn(C(C)(C)C)nn4)ccc3C)c2)ccn1` [Example 366], the IC50 was 1000 to 10000 nM in assay [1], 100 to 500 nM in assay [2] and 1000 to 10000 nM in assay [3].

As for `CNC(=O)c1cc(-c2cc(-c3cc(NC(=O)CCC(C)(C)C#N)ccc3C)ccn2)ccn1` [Example 357], the IC50 in assay [1] is 1000 to 10000 nM; in assay [2], 500 to 1000 nM; in assay [3] it was 1000 to 10000 nM.

Take `Cc1ccc(NC(=O)c2ccnc(C(C)(C)C#N)c2)cc1-c1cc(-c2ccnc3[nH]ccc23)cnn1` [Example 369]: the IC50 in assay [1] was 1000 to 10000 nM; in assay [2], at most 100 nM; in assay [3], 1000 to 10000 nM.

Regarding `COC(=O)Nc1cc(-c2cnnc(-c3cc(NC(=O)CN4CCCC4)cnc3C)c2)ccn1` [Example 359], the 50% inhibitory concentration (IC50) in assay [1], in assay [2] and in assay [3] was 1000 to 10000 nM throughout.

Consider `CNC(=O)c1cc(-c2cnnc(-c3cc(NC(=O)c4ccnc(C(C)(C)C#N)c4)cnc3C)c2)ccn1` [Example 316], for which the IC50 in assay [1] lay within 1000 to 10000 nM; in assay [2], 100 to 500 nM; in assay [3], 1000 to 10000 nM.
